In test [1] the target is T1, Recombinant human JAK3 catalytic domain (Homo sapiens, UniProt P52333).
T1 construct: Recombinant human JAK3 catalytic domain (amino acids 781-1124; catalog number PV3855); purchased Invitrogen PV3855
Put plainly: JAK3 inhibition assay (polyGT substrate). The following applies: 1 μM ATP, individual determinations, read-out: IC50 against JAK3. It counts as biochemical. As to the method:
Recombinant human JAK3 catalytic domain (amino acids 781-1124; catalog number PV3855) was purchased from Invitrogen. 0.5 ng JAK3 protein was incubated with 2.5 μg polyGT substrate (Sigma catalog number P0275) in kinase reaction buffer (25 mM Tris pH 7.5, 0.5 mM EGTA, 10 mM MgCl2, 2.5 mM DTT, 0.5 mM Na3VO4, 5 mM b-glycerolphosphate, 0.01% Triton X-100, 1 μM non-radioactive ATP, 0.25 μCi ^33P-gamma-ATP (GE Healthcare, catalog number AH9968) final concentrations) with or without 5 μL containing test compound or vehicle (DMSO, 1% final concentration), in a total volume of 25 μL, in a polypropylene 96-well plate (Greiner, V-bottom). […]
6005177) using a cell harvester (Perkin Elmer). […] 40 μL/well of Microscint-20 was added, the top of the plates was sealed and readout was performed using the Topcount (Perkin Elmer). Kinase activity was calculated by subtracting counts per min (cpm) obtained in the presence of a positive control inhibitor (10 μM staurosporine) from cpm obtained in the presence of vehicle. The ability of a test compound to inhibit this activity was determined as:
Percentage inhibition=((cpm determined for sample with test compound present−cpm determined for sample with positive control inhibitor) divided by (cpm determined in the presence of vehicle−cpm determined for sample with positive control inhibitor))*100. […]

Test [2] has as its system IL-6-induced STAT1 phosphorylation. The test can be described thus: Whole blood assay, IL-6 stimulation, phospho-STAT1 by FACS. As to conditions: human whole blood, CD4+ cells, 9 different donors. It counts as cell-based. The procedure: In addition, a flow cytometry analysis was performed to establish JAK1 over JAK2 compound selectivity ex vivo using human whole blood. Therefore, blood was taken from human volunteers who gave informed consent. Blood was then equilibrated for 30 min at 37° C. under gentle rocking, then aliquoted in Eppendorf tubes. Compound was added at different concentrations and incubated at 37° C. for 30 min under gentle rocking and subsequently stimulated for 20 min at 37° C. under gentle rocking with interleukin 6 (IL-6) for JAK1-dependent pathway stimulation or GM-CSF for JAK2-dependent pathway stimulation. Phospho-STAT1 and phospho-STAT5 were then evaluated using FACS analysis.
For IL-6-stimulated increase of Signal Transducers and Activators of Transcription 1 (pSTAT1) phosphorylation in white blood cell, human whole blood, drawn from human volunteers who gave informed consent, was ex vivo treated with the compound for 30 min and subsequently stimulated for 20 min with IL-6. The increase in phosphorylation of STAT1 by IL-6 in lymphocytes was measured using anti phospho-STAT1 antibody by FACS. […]
Cells are then washed once with 1×PBS and analyzed on a FACSCanto II flow cytometer (BD Biosciences).
50,000 total events were counted and Phospho-STAT1 positive cells were measured after gating on CD4+ cells, in the lymphocyte gate. […]
In general terms: In flow cytometry, cells or beads pass a laser one at a time.

Each structure is given as a SMILES string. pIC50: −log10 of the molar value. Values joined by “and” are separate entries in the source; they are usually repeats but may differ in a detail not shown here. Equal entries are not always repeated.

T1 sequence (P52333 781-1124): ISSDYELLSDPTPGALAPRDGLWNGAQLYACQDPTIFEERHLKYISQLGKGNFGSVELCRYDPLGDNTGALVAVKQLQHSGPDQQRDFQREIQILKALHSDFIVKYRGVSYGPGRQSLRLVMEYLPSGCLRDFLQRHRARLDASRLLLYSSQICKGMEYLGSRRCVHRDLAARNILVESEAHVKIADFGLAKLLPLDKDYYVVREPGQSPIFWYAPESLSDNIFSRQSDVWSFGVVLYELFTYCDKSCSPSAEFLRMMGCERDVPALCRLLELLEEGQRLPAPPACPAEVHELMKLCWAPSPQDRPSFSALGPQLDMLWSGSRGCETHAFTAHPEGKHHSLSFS

A word on the pIC50: it is the IC50 on a negative log10 scale, so that one unit is a factor of ten. `CCc1cc(C2CN(S(C)(=O)=O)C2)ncc1N(C)c1cc2c(cn1)ncn2C` [Compound 1, [4-Ethyl-6-(1-methanesulfonyl-azetidin-3-yl)-pyridin-3-yl]-methyl-(1-methyl-1H-imidazo[4,5-d]pyridin-6-yl)-amine]: the pIC50 in test [1] was 5.88 and 6.28 and 6.34 and 6.46 and 6.16 and 6.29 and 6.49 and 6.27; in test [2], 6.30.

These data come from patent US20140213576A1, “NOVEL COMPOUND USEFUL FOR THE TREATMENT OF DEGENERATIVE AND INFLAMMATORY DISEASES” (GALAPAGOS NV, priority 2013, published 2014).
